The results in this text go back to ChEMBL document CHEMBL5038679, “Fluoroalkylation of Dextromethorphan Improves CNS Exposure and Metabolic Stability” (ACS Med Chem Lett, 2022).

Data set [1] can be described thus: Aqueous solubility of compound in universal buffer at pH 7.4 at 100 uM incubated for 1.5 hrs under shaking condition by LC-MS/MS analysis. Format: physicochemical.
The nature of data set [2]: Aqueous solubility of compound in universal buffer at pH 3 at 100 uM incubated for 1.5 hrs under shaking condition by LC-MS/MS analysis. Format: physicochemical.
The nature of data set [3]: Stability in human liver microsomes assessed as half life at 10 uM measured upto 120 mins by LC-MS/MS analysis. Format: ADME, Microsome.
Data set [4] can be described thus: Cmax in Sprague-Dawley rat plasma at 2.5 mg/kg, po measured after 24 hrs by LC-MS/MS analysis. The data set is classed as ADME, organism-based. Further details: route oral, dose 2.5 mg/kg, time 24 hrs.
Data set [5] is described as follows: Cmax in Sprague-Dawley rat brain at 2.5 mg/kg, po measured after 24 hrs by LC-MS/MS analysis. The data set is classed as ADME, organism-based. Further details: route oral, time 24 hrs, dose 2.5 mg/kg.
Data set [6] can be described thus: AUC in Sprague-Dawley rat plasma at 2.5 mg/kg, po measured after 24 hrs by LC-MS/MS analysis. The data set is classed as ADME, organism-based. Further details: route oral, time 24 hrs, dose 2.5 mg/kg.
Data set [7] in a line: AUC in Sprague-Dawley rat brain at 2.5 mg/kg, po measured after 24 hrs by LC-MS/MS analysis. Format: ADME, organism-based. Further details: route oral, time 24 hrs, dose 2.5 mg/kg.
Data set [8] can be described thus: Unbound brain-to-plasma concentration ratio in Sprague-Dawley rat. The data set is classed as ADME, cell-free. The conditions noted are these: read-out: K(p,uu,brain).
A short description of data set [9]: Clearance in Sprague-Dawley rat plasma at 2.5 mg/kg, po measured after 24 hrs by LC-MS/MS analysis. The data set is classed as ADME, organism-based.
Data set [10] is described as follows: Half life in Sprague-Dawley rat plasma at 2.5 mg/kg, po measured after 24 hrs by LC-MS/MS analysis. Format: ADME, organism-based.
Data set [11] in a line: Half life in Sprague-Dawley rat brain at 2.5 mg/kg, po measured after 24 hrs by LC-MS/MS analysis. The data set is classed as ADME, organism-based.
A short description of data set [12]: in vitro. The settings on record: human, liver microsomes.
Data set [13] deals with Sodium-dependent noradrenaline transporter (Homo sapiens, UniProt P23975). Description: Displacement of […] from NET (unknown origin) expressed in HEK cell membrane incubated for 2 hrs by liquid scintillation counter analysis.
Sequence of Sodium-dependent noradrenaline transporter (P23975 whole entry): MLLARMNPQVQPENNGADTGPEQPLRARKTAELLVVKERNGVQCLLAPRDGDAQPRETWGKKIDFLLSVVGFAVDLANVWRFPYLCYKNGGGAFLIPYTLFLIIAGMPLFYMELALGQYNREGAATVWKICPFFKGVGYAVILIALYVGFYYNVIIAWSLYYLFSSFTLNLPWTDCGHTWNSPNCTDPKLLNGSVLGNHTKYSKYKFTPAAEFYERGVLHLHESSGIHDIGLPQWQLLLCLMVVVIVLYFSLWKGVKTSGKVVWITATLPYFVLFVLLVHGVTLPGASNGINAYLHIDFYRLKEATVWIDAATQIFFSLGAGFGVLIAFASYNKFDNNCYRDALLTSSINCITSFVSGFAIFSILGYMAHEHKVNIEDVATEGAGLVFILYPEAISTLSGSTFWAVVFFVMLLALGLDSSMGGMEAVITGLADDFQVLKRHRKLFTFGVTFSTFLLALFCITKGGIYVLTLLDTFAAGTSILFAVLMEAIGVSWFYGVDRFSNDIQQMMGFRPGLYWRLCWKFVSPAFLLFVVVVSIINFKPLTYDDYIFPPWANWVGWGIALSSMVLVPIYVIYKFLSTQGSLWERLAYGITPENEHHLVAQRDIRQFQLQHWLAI
In data set [14] the target is Sodium-dependent serotonin transporter (Homo sapiens, UniProt P31645). The data set is described as follows: biochemical. The data set is classed as cell-based, HEK.
Sequence of Sodium-dependent serotonin transporter (P31645 whole entry): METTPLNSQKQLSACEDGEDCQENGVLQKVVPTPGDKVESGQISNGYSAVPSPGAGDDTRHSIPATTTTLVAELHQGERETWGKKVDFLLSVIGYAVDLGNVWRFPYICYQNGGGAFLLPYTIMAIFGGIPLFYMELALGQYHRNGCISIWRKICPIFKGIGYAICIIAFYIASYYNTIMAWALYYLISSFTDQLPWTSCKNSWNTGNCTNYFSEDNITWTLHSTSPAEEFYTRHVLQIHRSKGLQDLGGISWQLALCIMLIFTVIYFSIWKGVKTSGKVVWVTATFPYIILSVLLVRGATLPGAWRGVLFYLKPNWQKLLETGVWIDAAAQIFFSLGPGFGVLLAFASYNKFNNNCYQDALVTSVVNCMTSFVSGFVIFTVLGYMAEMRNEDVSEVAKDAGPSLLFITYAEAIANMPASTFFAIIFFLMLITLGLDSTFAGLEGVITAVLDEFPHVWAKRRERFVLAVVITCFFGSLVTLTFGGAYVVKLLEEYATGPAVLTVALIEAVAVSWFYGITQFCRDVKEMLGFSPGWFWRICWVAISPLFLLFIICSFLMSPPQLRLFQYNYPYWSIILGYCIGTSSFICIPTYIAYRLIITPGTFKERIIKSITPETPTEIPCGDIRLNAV
Description: Displacement of [3H]-Citalopram from SERT receptor (unknown origin) expressed in HEK cell membrane incubated for 2 hrs by liquid scintillation counter analysis
Data set [15] deals with Glutamate [NMDA] receptor. Description: Displacement of […] from NMDA receptor (unknown origin) expressed in HEK cell membrane incubated for 2 hrs by liquid scintillation counter analysis.
Data set [16] has as its target Sigma intracellular receptor 2 (Homo sapiens, UniProt Q5BJF2). The data set is described as follows: Displacement of […] from sigma-2 receptor (unknown origin) expressed in HEK cell membrane incubated for 2 hrs by liquid scintillation counter analysis.
Data set [17] has as its target Sigma non-opioid intracellular receptor 1 (Homo sapiens, UniProt Q99720). Description: Displacement of […] from sigma-1 receptor (unknown origin) expressed in HEK cell membrane incubated for 2 hrs by liquid scintillation counter analysis.
Data set [18] in a line: Efflux ratio of apparent permeability across basolateral to apical side over apical to basolateral side in dog MDCK-MDR1 cells measured after 30 to 120 mins by LC-MS analysis. Format: ADME, cell-based, Canis lupus familiaris. The settings on record: time 30-120 min.
A short description of data set [19]: in vitro. The conditions noted are these: dog, MDCK-MDR1.
Description: Apparent permeability in dog MDCK-MDR1 cells from apical to basal side measured after 30 to 120 mins by LC-MS analysis
Data set [20] is described as follows: in vitro. The conditions noted are these: dog, MDCK-MDR1. The source holds these as a separate data set.
Description: Apparent permeability in dog MDCK-MDR1 cells from basal to apical side measured after 30 to 120 mins by LC-MS analysis

Converted amounts (≈) assume the structure as drawn.

Sequence of Sigma non-opioid intracellular receptor 1 (Q99720 whole entry): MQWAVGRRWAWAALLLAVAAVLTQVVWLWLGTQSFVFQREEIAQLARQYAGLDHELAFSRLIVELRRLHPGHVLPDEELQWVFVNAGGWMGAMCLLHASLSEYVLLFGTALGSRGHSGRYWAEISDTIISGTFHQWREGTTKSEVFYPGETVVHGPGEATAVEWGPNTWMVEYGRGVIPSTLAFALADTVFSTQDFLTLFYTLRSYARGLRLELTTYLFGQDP
Sequence of Sigma intracellular receptor 2 (Q5BJF2 whole entry): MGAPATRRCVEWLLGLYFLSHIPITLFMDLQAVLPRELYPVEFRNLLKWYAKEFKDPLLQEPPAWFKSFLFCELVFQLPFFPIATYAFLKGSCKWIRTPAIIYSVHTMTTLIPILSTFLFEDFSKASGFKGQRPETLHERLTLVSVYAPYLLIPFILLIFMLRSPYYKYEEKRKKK

Consider `[2H]C([2H])([2H])Oc1ccc2c(c1)[C@@]13CCCC[C@@H]1[C@@H](C2)N(C([2H])([2H])[2H])CC3`, for which the solubility at 1.5 h, 100 µM in [1] was 112 µM (≈ 31.1 µg/mL); in data set [2], 95.5 µM (≈ 26.5 µg/mL). Besides, in data set [3], the half-life at 10 µM is 4.4 h. Besides, the Cmax was determined as 5.5 ng/mL in [4] and 53.1 ng/mL in data set [5]. Also, the results for the AUC at 24 h in data set [6] and in data set [7] were 15 ng·h/mL and 97.3 ng·h/mL, respectively. The Kp uu at 20 µM in [8] is 10.8. Also, the apparent clearance CL/F in data set [9] amounted to 1840 mL/min/kg. Further, the half-life was found to be 7.07 h in data set [10] and 4.9 h in [11]. Also, the CLint scaled at 2 h, 10 µM in “in vitro [12]” turned out to be 4.72 mL/min/kg.

Regarding `[2H]C([2H])([2H])N1CC[C@@]23CCCC[C@@H]2[C@@H]1Cc1ccc(C(F)(F)F)cc13`, the solubility at 1.5 h, 100 µM in [1] stood at 95 µM (≈ 29.7 µg/mL); in data set [2], 70 µM (≈ 21.9 µg/mL). The half-life at 10 µM in data set [3] stood at 1.34 h. The CLint scaled at 2 h, 10 µM in “in vitro [12]” came out at 15.4 mL/min/kg.

Consider `CN1CC[C@]23CCCC[C@@H]2[C@H]1Cc1ccc(O)cc13`, for which the Ki was more than 340 nM in data set [13]; 401 nM in data set [14]; 486 nM in [15]; more than 10000 nM in data set [16]; 118 nM in [17].

On to `[2H]C([2H])([2H])N1CC[C@@]23CCCC[C@@H]2[C@@H]1Cc1ccc(OC(F)F)cc13`, for which the solubility at 1.5 h, 100 µM turned out to be 101 µM (≈ 31.4 µg/mL) in [1] and 83 µM (≈ 25.8 µg/mL) in [2]. Moreover, in data set [3], the half-life at 10 µM is 1.58 h. In “in vitro [12]”, this molecule displayed a CLint scaled at 2 h, 10 µM of 13.2 mL/min/kg.

`CN1CC[C@@]23CCCC[C@@H]2[C@@H]1Cc1ccc(C(F)(F)C(F)(F)F)cc13`: the Ki in data set [13] is more than 10000 nM; in data set [14], more than 10000 nM; in [15], more than 10000 nM; in data set [16], 1400 nM; in data set [17] it was more than 10000 nM. In addition, the figures for the solubility at 1.5 h, 100 µM in [1] and in data set [2] were more than 100 µM and 77 µM (≈ 27.7 µg/mL), respectively. Besides, the half-life at 10 µM in data set [3] came out at 1.45 h. The efflux ratio in [18] was found to be 1. Further, the CLint scaled at 2 h, 10 µM in “in vitro [12]” turned out to be 14.4 mL/min/kg. Moreover, the Papp A→B in the data set “in vitro [19]” turned out to be 0.831 ×10⁻⁶ cm/s. Further, the Papp B→A in “in vitro [20]” turned out to be 0.833 ×10⁻⁶ cm/s.

Take `[2H]C([2H])([2H])N1CC[C@@]23CCCC[C@@H]2[C@@H]1Cc1ccc(C(C)(F)F)cc13`: the solubility at 1.5 h, 100 µM was 95 µM (≈ 29.3 µg/mL) in [1] and 67 µM (≈ 20.7 µg/mL) in data set [2]. The half-life at 10 µM in data set [3] was 5.38 h. In the data set “in vitro [12]”, the CLint scaled at 2 h, 10 µM stood at 5.39 mL/min/kg.

Take `[2H]C([2H])([2H])N1CC[C@@]23CCCC[C@@H]2[C@@H]1Cc1ccc(C(F)(F)C(F)(F)F)cc13`: the solubility at 1.5 h, 100 µM amounted to 82 µM (≈ 29.7 µg/mL) in data set [1] and 70 µM (≈ 25.4 µg/mL) in [2]. For the same molecule, the half-life at 10 µM in [3] was found to be 2.07 h. In the data set “in vitro [12]”, this molecule gave a CLint scaled at 2 h, 10 µM of 10 mL/min/kg.

For `CN1CC[C@@]23CCCC[C@@H]2[C@@H]1Cc1ccc(C(C)(F)F)cc13`, the inhibition constant (Ki) in [13] is more than 10000 nM; in data set [14], 301 nM; in data set [15], more than 10000 nM; in data set [16], 826 nM; in data set [17], 675 nM. For the same molecule, the solubility at 1.5 h, 100 µM in data set [1] is more than 100 µM; in [2], 90 µM (≈ 27.5 µg/mL). Further, the half-life at 10 µM in data set [3] is 2.47 h. Moreover, the efflux ratio in data set [18] worked out at 1.09. This molecule came in with a CLint scaled at 2 h, 10 µM in “in vitro [12]” of 8.42 mL/min/kg. Besides, in “in vitro [19]”, the Papp A→B amounted to 0.763 ×10⁻⁶ cm/s. Moreover, the Papp B→A in “in vitro [20]” was found to be 0.833 ×10⁻⁶ cm/s.
